Measured values: US20200216439A1, “HETERO-1,5,6,7-TETRAHYDRO-4H-INDOL-4-ONES” (BAYER PHARMA AKTIENGESELLSCHAFT, priority 2015, published 2020)

Biological target: T1, catalytic domain of human Bub1 (amino acids 704-1085) (Homo sapiens, UniProt O43683)
T1 construct: catalytic domain of human Bub1 (amino acids 704-1085); His6 (N); made in house; host or cells: Hi5 insect cells
Experiment: Bub1 kinase assay (TR-FRET)
Assay type: biochemical
Settings: TR-FRET; ATP 10 μM, peptide substrate 1 μM; 60 min at 22° C.; average or median if tested more than once; read-out: Inhibition of Bub1 kinase IC50
Summary of the method: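 Eleven concentrations (0.1 nM–20 μM, duplicate) fitted by 4-parameter logistic for IC50. Read-out: EDTA-stopped TR-FRET (665/620 nm) detecting anti-phosphoserine binding to biotin-peptide (1 μM). Reaction used 10 μM ATP, 60 min at 22 °C, after 15 min compound preincubation with His-tagged human Bub1 704-1085.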

T1 sequence (O43683 704-1085): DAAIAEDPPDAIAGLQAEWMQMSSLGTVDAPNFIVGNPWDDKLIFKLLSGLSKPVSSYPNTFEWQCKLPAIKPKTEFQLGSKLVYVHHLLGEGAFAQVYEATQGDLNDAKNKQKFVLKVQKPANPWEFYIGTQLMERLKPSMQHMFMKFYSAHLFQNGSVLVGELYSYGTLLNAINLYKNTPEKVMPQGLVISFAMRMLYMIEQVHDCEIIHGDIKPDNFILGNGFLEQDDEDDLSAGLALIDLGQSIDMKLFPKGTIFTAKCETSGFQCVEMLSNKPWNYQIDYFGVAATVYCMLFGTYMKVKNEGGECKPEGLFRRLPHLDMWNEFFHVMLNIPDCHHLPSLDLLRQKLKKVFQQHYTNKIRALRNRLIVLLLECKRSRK

Row | IC50 [nM] | SMILES
1 | 224 | O=C1CNCc2[nH]c(-c3ccnc(NC(=O)[C@H]4C[C@H]4F)c3)c(Nc3ccccc3)c21 [Example 138, (1R,2R)—N-[4-(3-Anilino-4-oxo-4,5,6,7-tetrahydro-1H-pyrrolo[2,3-c]pyridin-2-yl)pyridin-2-yl]-2-fluorocyclopropanecarboxamide]
2 | 10 | CC(=O)Nc1cc(-c2[nH]c3c(c2Nc2ccccc2)C(=O)CN(C(=O)N2CCOCC2)C3)ccn1 [Example 125, N-{4-[3-Anilino-6-(morpholin-4-ylcarbonyl)-4-oxo-4,5,6,7-tetrahydro-1H-pyrrolo[2,3-c]pyridin-2-yl]pyridin-2-yl}acetamide]
3 | 9 | O=C1CN(C(=O)NC2CC2)Cc2[nH]c(-c3ccncc3)c(Nc3ccccc3)c21 [Example 84, N-Cyclopropyl-4-oxo-3-(phenylamino)-2-(pyridin-4-yl)-1,4,5,7-tetrahydro-6H-pyrrolo[2,3-c]pyridine-6-carboxamide]
4 | 4 | CC(C)(C)C(=O)N1CC(=O)c2c([nH]c(-c3ccncc3)c2Nc2ccccc2)C1 [Example 9, 6-(2,2-Dimethylpropanoyl)-3-(phenylamino)-2-(pyridin-4-yl)-1,5,6,7-tetrahydro-4H-pyrrolo[2,3-c]pyridin-4-one]
5 | 9 | O=C1CN(C(=O)c2ccncc2)Cc2[nH]c(-c3ccncc3)c(Nc3ccccc3)c21 [Example 63, 3-(phenylamino)-2-(pyridin-4-yl)-6-(pyridin-4-ylcarbonyl)-1,5,6,7-tetrahydro-4H-pyrrolo[2,3-c]pyridin-4-one]
6 | 4 | CN(C)S(=O)(=O)N1CC(=O)c2c([nH]c(-c3ccnc(NC(=O)[C@@H]4C[C@@H]4F)c3)c2Nc2ccccc2)C1 [Example 272, (1S,2S)—N-4-[6-(Dimethylsulfamoyl)-4-oxo-3-(phenylamino)-4,5,6,7-tetrahydro-1H-pyrrolo[2,3-c]pyridin-2-yl]pyridin-2-yl-2-fluorocyclopropanecarboxamide]
7 | 8 | CS(=O)(=O)N1CC(=O)c2c([nH]c(-c3ccncc3)c2Nc2ccccc2)C1 [Example 19, 6-(Methylsulfonyl)-3-(phenylamino)-2-(pyridin-4-yl)-1,5,6,7-tetrahydro-4H-pyrrolo[2,3-c]pyridin-4-one]
8 | 8 | CC(C)(O)CC(=O)N1CC(=O)c2c([nH]c(-c3ccncc3)c2Nc2ccccc2)C1 [Example 57, 6-(3-Hydroxy-3-methylbutanoyl)-3-(phenylamino)-2-(pyridin-4-yl)-1,5,6,7-tetrahydro-4H-pyrrolo[2,3-c]pyridin-4-one]
9 | 7 | CN1CCN(C(=O)N2CC(=O)c3c([nH]c(-c4ccnc(NC(=O)[C@@H]5C[C@@H]5F)c4)c3Nc3ccccc3)C2)CC1 [Example 209, (1S,2S)-2-Fluoro-N-(4-6-[(4-methylpiperazin-1-yl)carbonyl]4-oxo-3-(phenylamino)-4,5,6,7-tetrahydro-1H-pyrrolo[2,3-c]pyridin-2-ylpyridin-2-yl)cyclopropanecarboxamide]
10 | 22 | CC(=O)Nc1cc(-c2[nH]c3c(c2Nc2ccccc2)C(=O)CN(C(=O)CC(C)(C)C(F)(F)F)C3)ccn1 [Example 219, N-{4-[3-Anilino-4-oxo-6-(4,4,4-trifluoro-3,3-dimethylbutanoyl)-4,5,6,7-tetrahydro-1H-pyrrolo[2,3-c]pyridin-2-yl]pyridin-2-yl}acetamide]
11 | 16 | CC(=O)Nc1cc(-c2[nH]c3c(c2Nc2ccccc2)C(=O)CN(C(=O)c2cnco2)C3)ccn1 [Example 176, N-{4-[3-Anilino-6-(1,3-oxazol-5-ylcarbonyl)-4-oxo-4,5,6,7-tetrahydro-1H-pyrrolo[2,3-c]pyridin-2-yl]pyridin-2-yl}acetamide]
12 | 51 | O=C(Nc1cc(-c2[nH]c3c(c2Nc2ccccc2)C(=O)COC3)ccn1)c1cscn1 [Example 49, N-{4-[4-Oxo-3-(phenylamino)-1,4,5,7-tetrahydropyrano[3,4-b]pyrrol-2-yl]pyridin-2-yl}-1,3-thiazole-4-carboxamide]
13 | 23 | CC(C)(C)OC(=O)N1CC(=O)c2c([nH]c(-c3ccnc(NC(=O)C4(F)CC4)c3)c2Nc2ccccc2)C1 [Example 131, tert-Butyl 3-anilino-2-{2-([(1-fluorocyclopropyl)carbonyl]amino}pyridin-4-yl)-4-oxo-1,4,5,7-tetrahydro-6H-pyrrolo[2,3-c]pyridine-6-carboxylate]
14 | 16 | COC(=O)N1CC(=O)c2c([nH]c(-c3ccncc3OCC(F)F)c2Nc2ccccc2)C1 [Example 236, Methyl 2-[3-(2,2-difluoroethoxy)pyridin-4-yl]-4-oxo-3-(phenylamino)-1,4,5,7-tetrahydro-6H-pyrrolo[2,3-c]pyridine-6-carboxylate]
15 | 8 | O=C1CN(C(=O)OCCF)Cc2[nH]c(-c3ccncc3)c(Nc3ccccc3)c21 [Example 79, 2-Fluoroethyl 4-oxo-3-(phenylamino)-2-(pyridin-4-yl)-1,4,5,7-tetrahydro-6H-pyrrolo[2,3-c]pyridine-6-carboxylate]
16 | 363 | CC(=O)Nc1cc(-c2[nH]c3c(c2Nc2ccc(C)cc2)C(=O)CN(C(=O)OC(C)(C)C)C3)ccn1 [Example 295, tert-Butyl 2-(2-acetamidopyridin-4-yl)-3-[(4-methylphenyl)amino]-4-oxo-1,4,5,7-tetrahydro-6H-pyrrolo[2,3-c]pyridine-6-carboxylate]
17 | 4 | CS(=O)(=O)N1CC(=O)c2c([nH]c(-c3ccnc(NC(=O)C4CC4(F)F)c3)c2Nc2ccccc2)C1 (racemic) [Example 149, (1RS)—N-{4-[3-Anilino-6-(methylsulfonyl)-4-oxo-4,5,6,7-tetrahydro-1H-pyrrolo[2,3-c]pyridin-2-yl]pyridin-2-yl}-2,2-difluorocyclopropanecarboxamide]
18 | 45 | CC(=O)Nc1cc(-c2[nH]c3c(c2Nc2ccccc2)C(=O)CN(C(=O)c2cccnc2)C3)ccn1 [Example 115, N-{4-[4-Oxo-3-(phenylamino)-6-(pyridin-3-ylcarbonyl)-4,5,6,7-tetrahydro-1H-pyrrolo[2,3-c]pyridin-2-yl]pyridin-2-yl}acetamide]
19 | 6 | COCCOc1cnccc1-c1[nH]c2c(c1Nc1ccccc1)C(=O)CN(S(=O)(=O)N(C)C)C2 [Example 280, 2-[3-(2-Methoxyethoxy)pyridin-4-yl]-N,N-dimethyl-4-oxo-3-(phenylamino)-1,4,5,7-tetrahydro-6H-pyrrolo[2,3-c]pyridine-6-sulfonamide]
20 | 67 | Cn1cnc(C(=O)N2CC(=O)c3c([nH]c(-c4ccncc4)c3Nc3ccccc3)C2)c1 [Example 60, 6-[(1-Methyl-1H-imidazol-4-yl)carbonyl]-3-(phenylamino)-2-(pyridin-4-yl)-1,5,6,7-tetrahydro-4H-pyrrolo[2,3-c]pyridin-4-one]
21 | 205 | Cc1cnccc1-c1[nH]c2c(c1Nc1ccccc1)C(=O)CN(C(=O)OC(C)(C)C)C2 [Example 99, tert-Butyl 2-(3-methylpyridin-4-yl)-4-oxo-3-(phenylamino)-1,4,5,7-tetrahydro-6H-pyrrolo[2,3-c]pyridine-6-carboxylate]
22 | 18 | CN(C)C(=O)N1CC(=O)c2c([nH]c(-c3ccncc3OCC(F)(F)F)c2Nc2ccccc2)C1 [Example 244, N,N-Dimethyl-4-oxo-3-(phenylamino)-2-[3-(2,2,2-trifluoroethoxy)pyridin-4-yl]-1,4,5,7-tetrahydro-6H-pyrrolo[2,3-c]pyridine-6-carboxamide]
23 | 79 | CC(=O)Nc1cc(-c2[nH]c3c(c2Nc2ccccn2)C(=O)CN(C(=O)OC(C)(C)C)C3)ccn1 [Example 310, tert-Butyl 2-(2-acetamidopyridin-4-yl)-4-oxo-3-(pyridin-2-ylamino)-1,4,5,7-tetrahydro-6H-pyrrolo[2,3-c]pyridine-6-carboxylate]
24 | 40 | O=C1CNCc2[nH]c(-c3ccnc(NC(=O)[C@@H]4C[C@@H]4F)c3)c(Nc3ccccc3)c21 [Example 197, (1S,2S)—N-[4-(3-anilino-4-oxo-4,5,6,7-tetrahydro-1H-pyrrolo[2,3-c]pyridin-2-yl)pyridin-2-yl]-2-fluorocyclopropanecarboxamide]
25 | 11 | COCCNC(=O)N1CC(=O)c2c([nH]c(-c3ccncc3)c2Nc2ccccc2)C1 [Example 86, N-(2-Methoxyethyl)-4-oxo-3-(phenylamino)-2-(pyridin-4-yl)-1,4,5,7-tetrahydro-6H-pyrrolo[2,3-c]pyridine-6-carboxamide]
26 | 17 | O=C1COCc2[nH]c(-c3ccncc3F)c(Nc3ccccc3)c21 [Example 33, 2-(3-Fluoropyridin-4-yl)-3-(phenylamino)-1,7-dihydropyrano[3,4-b]pyrrol-4(5H)-one]
27 | 10 | O=C1CN(C(=O)c2cnc[nH]2)Cc2[nH]c(-c3ccncc3)c(Nc3ccccc3)c21 [Example 59, 6-(1H-Imidazol-5-ylcarbonyl)-3-(phenylamino)-2-(pyridin-4-yl)-1,5,6,7-tetrahydro-4H-pyrrolo[2,3-c]pyridin-4-one]
28 | 50 | CCC(=O)Nc1cc(-c2[nH]c3c(c2Nc2ccccc2)C(=O)COC3)ccn1 [Example 44, N-{4-[4-Oxo-3-(phenylamino)-1,4,5,7-tetrahydropyrano[3,4-b]pyrrol-2-yl]pyridin-2-yl}propanamide]
29 | 14 | O=C1CN(C(=O)N2CCNC2=O)Cc2[nH]c(-c3ccncc3)c(Nc3ccccc3)c21 [Example 91, 6-[(2-Oxoimidazolidin-1-yl)carbonyl]-3-(phenylamino)-2-(pyridin-4-yl)-1,5,6,7-tetrahydro-4H-pyrrolo[2,3-c]pyridin-4-one]
30 | 233 | CC(C)(C)SC(=O)N1CC(=O)c2c([nH]c(-c3ccncc3OCC(F)F)c2Nc2ccccc2)C1 [Example 304, S-tert-Butyl 3-anilino-2-[3-(2,2-difluoroethoxy)pyridin-4-yl]-4-oxo-1,4,5,7-tetrahydro-6H-pyrrolo[2,3c]pyridine-6-carbothioate]
